Data on 4 compounds can be found in ChEMBL document CHEMBL4476872, “Inhibitors of cellular metabolic processes” (2018).

pIC50: −log10 of the molar value. Some results are limits rather than exact numbers.

Chain of S-adenosylmethionine synthase isoform type-2 (P31153 whole entry, canonical isoform): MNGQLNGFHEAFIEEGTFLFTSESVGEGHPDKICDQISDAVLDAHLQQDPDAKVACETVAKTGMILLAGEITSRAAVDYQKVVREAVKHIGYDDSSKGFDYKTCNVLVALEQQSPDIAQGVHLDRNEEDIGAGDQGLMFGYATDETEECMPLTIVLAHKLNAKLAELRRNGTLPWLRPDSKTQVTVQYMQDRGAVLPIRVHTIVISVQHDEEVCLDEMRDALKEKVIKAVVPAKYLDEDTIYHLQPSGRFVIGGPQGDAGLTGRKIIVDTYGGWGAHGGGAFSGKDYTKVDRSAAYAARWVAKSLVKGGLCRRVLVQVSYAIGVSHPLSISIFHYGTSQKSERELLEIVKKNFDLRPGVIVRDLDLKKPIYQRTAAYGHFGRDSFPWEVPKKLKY

The assay concerns the target S-adenosylmethionine synthase isoform type-2 (Homo sapiens, UniProt P31153). Kind of assay: Inhibition of recombinant His6-tagged MAT2A (unknown origin) expressed in SF9 insect cells using L-Met as substrate preincubated for 60 mins followed by substrate and ATP addition and measured after 60 mins by spectrophotometric analysis.
For `COc1ccc(-c2c(CC#N)[nH]c3c(-c4ccccc4)c(-c4ccccc4)nn3c2=O)cc1`, the pIC50 (commonly −log10 of the IC50, conventionally taken in molar units) is 6.00 to 7.00.

Consider `COC(=O)Cc1nc2ccc(-c3c(C)[nH]c4c(-c5ccccc5)c(-c5ccccc5)nn4c3=O)cc2s1`, for which the pIC50 is over 7.00. The result for `Cc1[nH]c2c(N3CCCCC3)c(-c3ccccc3)nn2c(=O)c1-c1ccccc1` reads 6.00 to 7.00; that for `Cc1[nH]c2c(-c3ccccc3)c(-c3ccccc3)nn2c(=O)c1-c1ccc(OCC(=O)N(C)C)cc1`, 6.00 to 7.00.
